According to PubChem BioAssay (NCI):
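Exposure lasted 48 hours, with cells grown in 96-well plates and compounds tested at five concentrations. GI50: concentration for 50% inhibition of growth. At the TGI there is no net growth.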

What was measured:
Assay in all cases: NCI-60 cell line screen, 48 h
SF-295 CNS = tested on: SF-295 CNS
OVCAR-8 ovarian = tested on: OVCAR-8 ovarian
HT29 colon = tested on: HT29 colon
NCI-H23 lung = tested on: NCI-H23 lung
SN12C renal = tested on: SN12C renal
NCI/ADR-RES ovarian = tested on: NCI/ADR-RES ovarian
OVCAR-3 ovarian = tested on: OVCAR-3 ovarian
NCI-H522 lung = tested on: NCI-H522 lung
COLO 205 colon = tested on: COLO 205 colon
LOX IMVI melanoma = tested on: LOX IMVI melanoma

Structure (SMILES) | TGI (SF-295 CNS) | TGI (OVCAR-8 ovarian) | TGI (HT29 colon) | TGI (NCI-H23 lung) | TGI (SN12C renal) | TGI (NCI/ADR-RES ovarian) | TGI (OVCAR-3 ovarian) | TGI (NCI-H522 lung) | TGI (COLO 205 colon) | TGI (LOX IMVI melanoma) | GI50 (SF-295 CNS) | GI50 (OVCAR-8 ovarian) | GI50 (HT29 colon) | GI50 (NCI-H23 lung) | GI50 (SN12C renal) | GI50 (NCI/ADR-RES ovarian) | GI50 (OVCAR-3 ovarian) | GI50 (NCI-H522 lung) | GI50 (COLO 205 colon) | GI50 (LOX IMVI melanoma)
CCCC1c2c(ccc3ccccc23)Oc2ccc3ccccc3c21 | 88.6 µM | > 100 µM | > 100 µM | > 100 µM | > 100 µM | > 100 µM | > 100 µM | 80.4 µM | > 100 µM | > 100 µM | – | – | – | – | – | – | – | – | – | –
COc1cc(Nc2nc3cc(N)cc(N)c3nc2-c2ccccc2)cc(OC)c1 | 59.2 µM | 47 µM | > 100 µM | > 100 µM | > 100 µM | 73.4 µM | 20.1 µM | 28.8 µM | 31.4 µM | 50.6 µM | 12.5 µM | 6.2 µM | 27.3 µM | 27.5 µM | 8.62 µM | 12.9 µM | 3.9 µM | 9.51 µM | 14.5 µM | 15.2 µM
CCOP(=O)(OCC)C(NC(c1ccccc1)c1ccccc1)c1ccccc1 (stereo not drawn) | 14.8 µM | 33.6 µM | > 100 µM | 28.7 µM | 32.6 µM | 24.8 µM | 18.9 µM | 48 µM | – | 28.5 µM | 2.05 µM | 16.3 µM | 32.2 µM | 14.4 µM | 16.8 µM | 11 µM | 3.66 µM | 17.1 µM | – | 14 µM
c1ccc(Cc2nc3ccc(Nc4ncnc5ccccc45)cc3[nH]2)cc1 | > 25 µM | > 25 µM | > 25 µM | > 25 µM | > 25 µM | > 25 µM | > 25 µM | > 25 µM | > 25 µM | > 25 µM | > 25 µM | > 25 µM | 9.07 µM | > 25 µM | 11.1 µM | > 25 µM | > 25 µM | > 15.1 µM | > 25 µM | 17.3 µM
CSc1nc2c(c(=O)[nH]1)N=C1c3ccccc3C(=O)C1C(c1ccc(F)cc1)N2 (stereo not drawn) | 34.3 µM | 35.4 µM | 12.3 µM | 55.9 µM | > 100 µM | 33.1 µM | 12.5 µM | 37.9 µM | > 100 µM | 30 µM | 3.67 µM | 13.1 µM | 3.36 µM | 13.5 µM | 28.4 µM | 6.42 µM | 3.38 µM | 3.17 µM | 13 µM | 8.78 µM
Oc1ccc(/C=N\Nc2ccccn2)c(O)c1 | 0.767 µM | > 100 µM | > 100 µM | > 100 µM | > 100 µM | > 100 µM | > 100 µM | > 100 µM | > 100 µM | > 100 µM | 0.318 µM | 0.645 µM | 4.8 µM | 0.783 µM | 2.48 µM | 0.364 µM | 1.77 µM | 1.29 µM | 5.83 µM | 1.96 µM
COP(=O)(OC)C(NC(c1ccccc1)c1ccccc1)c1ccc2c(c1)OCO2 (stereo not drawn) | > 100 µM | > 100 µM | 51.5 µM | 88.3 µM | 53.8 µM | > 100 µM | 50.2 µM | 70 µM | > 100 µM | 31.4 µM | 29.5 µM | 35.2 µM | 19.9 µM | 31.5 µM | 24 µM | 30.3 µM | 22.1 µM | 24.5 µM | 52.2 µM | 16.4 µM
Cc1ccc(C(CN(C)C)C(=O)c2ccccc2)cc1 (stereo not drawn) | 18.2 µM | 11.3 µM | 12.5 µM | 26.7 µM | 11.5 µM | 12.6 µM | 3.55 µM | 3.52 µM | 4.91 µM | 2.27 µM | 5.09 µM | 3.13 µM | 3.26 µM | 10.5 µM | 3.59 µM | 2.89 µM | 1.86 µM | 1.8 µM | 2.2 µM | 1.01 µM
O=C(O)c1ccc2c(c1)Cc1cc([N+](=O)[O-])ccc1-2 | > 100 µM | > 100 µM | > 100 µM | > 100 µM | > 100 µM | > 100 µM | > 100 µM | > 100 µM | > 100 µM | > 100 µM | – | – | – | – | – | – | – | – | – | –
CCCC[C@H]1C(=O)O[C@H](C)[C@H](NC(=O)c2cccc(NC=O)c2O)C(=O)O[C@@H](C)[C@@H]1OC(=O)CC(C)C | 21 µM | 40.5 µM | 27.4 µM | 31.2 µM | 40.7 µM | 65.6 µM | 24.6 µM | 31.6 µM | 31.6 µM | 19 µM | – | – | – | – | – | – | – | – | – | –
CC(C)(C)N1CCC1C(N)=O (stereo not drawn) | > 100 µM | > 100 µM | > 100 µM | > 100 µM | > 100 µM | > 100 µM | > 100 µM | > 100 µM | > 100 µM | > 100 µM | > 100 µM | > 100 µM | > 100 µM | > 100 µM | > 100 µM | > 100 µM | > 100 µM | > 100 µM | > 100 µM | > 100 µM
OCc1cn(Cc2cccc(Cl)c2)c2ccccc12 | 14.5 µM | 66.9 µM | 34.3 µM | 43.5 µM | 42.6 µM | 62 µM | 1.1 µM | 22.7 µM | 20.3 µM | 25.8 µM | 0.145 µM | 10.9 µM | 1.83 µM | 13.3 µM | 12 µM | 13.7 µM | 0.128 µM | 5.95 µM | 0.432 µM | 6.71 µM
C[C@]12CCC3[C@@H](C[C@@H]4SC(Nc5ccccc5)=N[C@@]45CC(=O)CC[C@]35C)[C@@H]1CCC2=O (stereo partly drawn) | > 100 µM | > 100 µM | 17.6 µM | > 100 µM | 25.3 µM | > 100 µM | 50.8 µM | 23.6 µM | 37.4 µM | 10.8 µM | 8.98 µM | 7.61 µM | 3.9 µM | 18.1 µM | 3.81 µM | 6.34 µM | 4.41 µM | 6.6 µM | 12.3 µM | 3.22 µM
Cc1ccc2c(c1)nc(C(=O)c1ccco1)c(C(F)(F)F)[n+]2[O-] | > 100 µM | > 100 µM | > 100 µM | > 100 µM | > 100 µM | > 100 µM | > 100 µM | > 100 µM | > 100 µM | > 100 µM | 64 µM | > 100 µM | > 100 µM | 91.8 µM | > 100 µM | 57 µM | > 100 µM | 66.7 µM | > 100 µM | > 100 µM
